Literature values, collected in patent US20240366562A1, “GYNECOMASTIA AND/OR MASTALGIA TREATMENT” (priority 2021, published 2024).

Experiments:
[1] = test system: estrogen-dependent human MCF-7 breast cancer cell line
estrogen receptor = target: T1, estrogen receptor (Homo sapiens, UniProt P03372)
T1 sequence (P03372 1-595): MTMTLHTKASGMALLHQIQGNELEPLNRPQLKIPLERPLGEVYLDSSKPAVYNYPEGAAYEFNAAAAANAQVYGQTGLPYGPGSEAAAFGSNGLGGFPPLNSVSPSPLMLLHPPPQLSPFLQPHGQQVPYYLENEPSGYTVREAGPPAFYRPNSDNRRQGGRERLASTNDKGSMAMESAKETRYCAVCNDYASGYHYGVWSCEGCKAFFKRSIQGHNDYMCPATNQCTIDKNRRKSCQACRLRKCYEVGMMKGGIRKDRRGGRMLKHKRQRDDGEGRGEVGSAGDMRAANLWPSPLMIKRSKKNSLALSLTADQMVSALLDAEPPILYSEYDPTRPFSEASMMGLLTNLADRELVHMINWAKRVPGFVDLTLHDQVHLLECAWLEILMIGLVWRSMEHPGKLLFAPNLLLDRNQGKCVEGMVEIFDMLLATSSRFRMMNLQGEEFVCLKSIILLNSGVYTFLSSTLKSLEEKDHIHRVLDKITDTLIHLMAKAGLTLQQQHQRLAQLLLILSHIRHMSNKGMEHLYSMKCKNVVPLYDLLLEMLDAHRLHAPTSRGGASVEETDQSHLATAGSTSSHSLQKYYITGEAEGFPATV

mammary tumors = conditions: rodents
[2] = human subjects who ingested I3C
[3] = women taking Tamoxifen

Question: Which results are given for OCc1c[nH]c2ccccc12 [Compound I3C, Indole-3-carbinole]?
Answer: Competes with estrogen (estrogen pathway): no; Enhances 2HE1 excretion (estrogen pathway): yes; Inhibits estrogen synthesis (estrogen pathway): yes; Lowers circulating estrogen (estrogen pathway): yes; Triggers degradation of ERα (estrogen pathway): yes; Expression of CDK6 [1]: down-regulates; Competition with estrogen for estrogen receptor binding (estrogen receptor): fail to compete; Formation of spontaneous and carcinogen-induced mammary tumors (mammary tumors): reduce the formation; Side effects (mammary tumors): no apparent side effects; Side effects [2]: no side effects

Question: With c1ccc2c(Cc3c[nH]c4ccccc34)c[nH]c2c1 [DIM, 3,3′-diindolylmethane] as the compound, how does the Tamoxifen metabolites [3] read?
Answer: decreases in Tamoxifen metabolites

Question: For CC/C(=C(\c1ccccc1)c1ccc(OCCN(C)C)cc1)c1ccccc1 [Tamoxifen, reference compound], which Competes with estrogen (estrogen pathway) is on record?
Answer: yes

Question: What about the “Enhances 2HE1 excretion” value (estrogen pathway) of the same compound?
Answer: no

Question: What about the Inhibits estrogen synthesis (estrogen pathway) of the same compound?
Answer: no

Question: What about the Lowers circulating estrogen (estrogen pathway) of the same compound?
Answer: no

Question: What about the “Triggers degradation of ERα” value (estrogen pathway) of the same compound?
Answer: no
